From patent US11827644B2, “Pyrazine derivative and application thereof in inhibiting SHP2” (SUZHOU GENHOUSE PHARMACEUTICAL CO., LTD, priority 2019, dated 2023) come the findings set out here.

Sequence of SHP2 (Q06124 whole entry): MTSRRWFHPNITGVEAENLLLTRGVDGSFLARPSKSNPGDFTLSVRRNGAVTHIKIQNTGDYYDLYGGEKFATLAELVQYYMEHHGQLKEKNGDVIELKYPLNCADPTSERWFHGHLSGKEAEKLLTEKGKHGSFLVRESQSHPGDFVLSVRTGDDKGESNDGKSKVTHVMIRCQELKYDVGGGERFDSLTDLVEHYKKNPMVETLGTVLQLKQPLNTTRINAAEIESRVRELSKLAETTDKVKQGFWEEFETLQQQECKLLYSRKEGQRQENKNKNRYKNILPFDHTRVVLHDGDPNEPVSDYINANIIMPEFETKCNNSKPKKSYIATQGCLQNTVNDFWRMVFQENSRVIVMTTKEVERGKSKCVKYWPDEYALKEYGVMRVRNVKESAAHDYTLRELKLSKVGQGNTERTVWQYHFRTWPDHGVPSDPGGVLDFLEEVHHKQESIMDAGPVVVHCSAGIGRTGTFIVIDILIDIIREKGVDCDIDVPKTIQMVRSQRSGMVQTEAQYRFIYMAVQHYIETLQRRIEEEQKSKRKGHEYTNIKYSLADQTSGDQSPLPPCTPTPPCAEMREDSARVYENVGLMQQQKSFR

This experiment concerns the target SHP2 (Homo sapiens (Human), UniProt Q06124). As to the kind of experiment: SHP2 allosteric inhibition experiment (DiFMUP fluorescence). The format is biochemical. The settings on record: 0.5 nM SHP2 activated with 0.5 μM peptide IRS1_pY1172(dPEG8)pY1222; substrate DiFMUP; 25° C.; read-out: IC50 values of compounds inhibiting SHP2. From the text:
SHP2 allosteric inhibition experiment
SHP2 is allosterically activated through the activation of a bis-tyrosyl-phosphorylated peptide and Src Homology 2 (SH2) domains. The activation steps followed result in the release of the auto-inhibition interface, which in turn activates the SHP2 protein tyrosine phosphatase (PTP) and can be used for substrate recognition and reaction catalysis. The SHP2 catalytic activity is monitored by a rapid fluorescent mode with the alternative substrate DiFMUP.
The phosphatase reaction was conducted in 384-well black polystyrene plates (Corning, Cat #3575) with flat bottom, low edge and non-binding surface at room temperature and 25 μl final volume of the following buffer condition: 60 mM HEPES, pH 7.2, 75 mM NaCl, 75 mM KCl, 1 mM EDTA, 0.05% P-20, 5 mM DTT.
The following experiments were conducted to monitor the SHP2 inhibition by the compounds (at concentrations of 0.0003-100 μM) in this invention:
Wherein, incubate 0.5 nM SHP2 with 0.5 μM peptide IRS1_pY1172 (dPEG8) pY1222 (sequence: H2N-LN (pY) IDLDLV (dPEG8) LST (pY) ASINFQK-amide) (SEQ ID NO: 1) (WO2016/203406A1). After incubation at 25° C. for 30-60 minutes, the alternative substrate DiFMUP (Invitrogen, cat #D6567) was added to the reaction and incubated at 25° C. for 30 minutes. The reaction was then carefully […] by adding 5 μL of a 160 μM bpV (Phen) solution (Enzo Life Sciences cat #ALX-270-204). The fluorescence signal was monitored using a microplate reader (VARIOSKAN LUX, Thermo) with excitation and emission wavelengths of 340 nm and 450 nm, respectively. The inhibitory dose-response curve is analyzed using a standardized IC50 regression curve based on control-based normalization.
With `C[C@@H]1OCC2(CCN(c3cnc(Sc4cccc(-c5ncccn5)c4Cl)cn3)CC2)[C@@H]1N` [Example 9], the IC50 is 6.61 nM.
To `Cc1csc(-c2cccc(Sc3cnc(N4CCC5(CC4)CO[C@@H](C)[C@H]5N)cn3)c2Cl)n1` [Example 18] belongs 7.93 nM.
Consider `C[C@@H]1OCC2(CCN(c3cnc(Sc4cccc(-c5cnc6ccnn6c5)c4Cl)cn3)CC2)[C@@H]1N` [Example 29], for which the IC50 came to 6.62 nM.
To `C[C@@H]1OCC2(CCN(c3cnc(Sc4cccc(-c5ccn6nccc6n5)c4Cl)cn3)CC2)[C@@H]1N` [Example 32] belongs 2.82 nM.
Consider `C[C@@H]1OCC2(CCN(c3cnc(Sc4cccc(-c5nccs5)c4Cl)cn3)CC2)[C@@H]1N` [Example 34], for which the IC50 was determined as 5.34 nM.
To `C[C@@H]1OCC2(CCN(c3cnc(Sc4cccc(-c5ncco5)c4Cl)cn3)CC2)[C@@H]1N` [Example 3] belongs 1.26 nM.
Then `C[C@@H]1OCC2(CCN(c3cnc(Sc4cccc(NC(=O)c5cc(Cl)ccc5O)c4Cl)cn3)CC2)[C@@H]1N` [Example 38], with 9.41 nM; and `C[C@@H]1OCC2(CCN(c3cnc(Sc4cccc(Nc5cnccn5)c4Cl)cn3)CC2)[C@@H]1N` [Example 2], with 2.71 nM; and `C[C@@H]1OCC2(CCN(c3cnc(Sc4cccc(NC(=O)c5ccccc5C(=O)O)c4Cl)cn3)CC2)[C@@H]1N` [Example 22], with 1.72 nM.
As to `C[C@@H]1OCC2(CCN(c3cnc(Sc4cccc(-c5cnccn5)c4Cl)cn3)CC2)[C@@H]1N` [Example 6], the IC50 came out at 1.31 nM.
As for `C[C@@H]1OCC2(CCN(c3cnc(Sc4cccc(-c5nc(C#N)co5)c4Cl)cn3)CC2)[C@@H]1N` [Example 15], the IC50 amounted to 4.06 nM.
Then `C[C@@H]1OCC2(CCN(c3cnc(Sc4cccc(NC(=O)c5cc(F)c(F)cc5Cl)c4Cl)cn3)CC2)[C@@H]1N` [Example 13], with 5.88 nM; and `Cc1ncsc1-c1cccc(Sc2cnc(N3CCC4(CC3)CO[C@@H](C)[C@H]4N)cn2)c1Cl` [Example 16], with 4.9 nM; and `C[C@@H]1OCC2(CCN(c3cnc(Sc4cccc(Nc5ncccn5)c4Cl)cn3)CC2)[C@@H]1N` [Example 43], with 7.5 nM.
To `C[C@@H]1OCC2(CCN(c3cnc(Sc4cccc(-c5cnn(CCO)c5)c4Cl)cn3)CC2)[C@@H]1N` [Example 42] belongs 3.4 nM; to `C[C@@H]1OCC2(CCN(c3cnc(Sc4cccc(NC(=O)c5ccn(C)n5)c4Cl)cn3)CC2)[C@@H]1N` [Example 12], 3.59 nM.
For the compound `C[C@@H]1OCC2(CCN(c3cnc(Sc4ccnc(-c5cnccn5)c4Cl)cn3)CC2)[C@@H]1N` [Example 7], the IC50 was 41.6 nM.
Then `CCn1ccc(-c2cccc(Sc3cnc(N4CCC5(CC4)CO[C@@H](C)[C@H]5N)cn3)c2Cl)n1` [Example 25], with 1.74 nM.
To `C[C@@H]1OCC2(CCN(c3cnc(Sc4cccc(NC(=O)c5c(O)nc6ccccn6c5=O)c4Cl)cn3)CC2)[C@@H]1N` [Example 36] belongs 6.42 nM.
To `C[C@@H]1OCC2(CCN(c3cnc(Sc4cccc(-c5nc(C(N)=O)co5)c4Cl)cn3)CC2)[C@@H]1N` [Example 19] belongs 1.95 nM; to `C[C@@H]1OCC2(CCN(c3cnc(Sc4cccc(-c5nc6ccccc6o5)c4Cl)cn3)CC2)[C@@H]1N` [Example 14], 9.24 nM.
Turning to `C[C@@H]1OCC2(CCN(c3cnc(Sc4cccc(-c5cccs5)c4Cl)cn3)CC2)[C@@H]1N` [Example 28], the IC50 worked out at 9.4 nM.
To `C[C@@H]1OCC2(CCN(c3cnc(Sc4cccc(-c5cn6ccnc6cn5)c4Cl)cn3)CC2)[C@@H]1N` [Example 26] belongs 6.33 nM; to `C[C@@H]1OCC2(CCN(c3cnc(Sc4cccc(N5C(=O)C6CC6C5=O)c4Cl)cn3)CC2)[C@@H]1N` (stereo partly shown) [Example 31], 7.91 nM; to `CCn1cc(-c2cccc(Sc3cnc(N4CCC5(CC4)CO[C@@H](C)[C@H]5N)cn3)c2Cl)cn1` [Example 40], 4.4 nM.
Then `C[C@@H]1OCC2(CCN(c3cnc(Sc4cccc(-c5cnccn5)c4Cl)c(N)n3)CC2)[C@@H]1N` [Example 8], with 5.12 nM; and `C[C@@H]1OCC2(CCN(c3cnc(Sc4cccc(NC(=O)c5c(O)nc6n(c5=O)CCCC6)c4Cl)cn3)CC2)[C@@H]1N` [Example 11], with 0.31 nM.
On to `C[C@@H]1OCC2(CCN(c3cnc(Sc4cccc(NC(=O)c5ncccn5)c4Cl)cn3)CC2)[C@@H]1N` [Example 35], for which the IC50 worked out at 2.91 nM.
To `C[C@@H]1OCC2(CCN(c3cnc(Sc4cccc(NC(=O)c5cc6n(n5)CCC6)c4Cl)cn3)CC2)[C@@H]1N` [Example 39] belongs 8.3 nM; to `C[C@@H]1OCC2(CCN(c3cnc(Sc4cccc(N5CCCC5)c4Cl)cn3)CC2)[C@@H]1N` [Example 4], 7.88 nM.
To `C[C@@H]1OCC2(CCN(c3cnc(Sc4cccc(-c5nc(C#N)cs5)c4Cl)cn3)CC2)[C@@H]1N` [Example 17] belongs 4.35 nM; to `C[C@@H]1OCC2(CCN(c3cnc(Sc4cccc(N5CCCC5=O)c4Cl)cn3)CC2)[C@@H]1N` [Example 1], 7.69 nM.
To `C[C@@H]1OCC2(CCN(c3cnc(Sc4cccc(NC(=O)c5cccc(F)c5Cl)c4Cl)cn3)CC2)[C@@H]1N` [Example 10] belongs 5.1 nM; to `C[C@@H]1OCC2(CCN(c3cnc(Sc4cccc(-c5cnc6[nH]ccc6n5)c4Cl)cn3)CC2)[C@@H]1N` [Example 41], 6.2 nM; to `C[C@@H]1OCC2(CCN(c3cnc(Sc4cccc(-c5cnn6cccnc56)c4Cl)cn3)CC2)[C@@H]1N` [Example 23], 3.28 nM.
Turning to `Cc1coc(-c2cccc(Sc3cnc(N4CCC5(CC4)CO[C@@H](C)[C@H]5N)cn3)c2Cl)n1` [Example 24], the IC50 stood at 2.41 nM.
To `C[C@@H]1OCC2(CCN(c3cnc(Sc4cccc(-c5ccc(C#N)o5)c4Cl)cn3)CC2)[C@@H]1N` [Example 21] belongs 6.01 nM; to `C[C@@H]1OCC2(CCN(c3cnc(Sc4cccc(NC(=O)c5cc6n(n5)CCCC6)c4Cl)cn3)CC2)[C@@H]1N` [Example 30], 6.45 nM; to `C[C@@H]1OCC2(CCN(c3cnc(Sc4cccc(NC(=O)c5ccccc5O)c4Cl)cn3)CC2)[C@@H]1N` [Example 37], 9.01 nM.
Then `C[C@@H]1OCC2(CCN(c3cnc(Sc4cccc(-c5nc(C(=O)O)co5)c4Cl)cn3)CC2)[C@@H]1N` [Example 20], with 1.27 nM; and `C[C@@H]1OCC2(CCN(c3cnc(Sc4cccc(-c5ccn(C)n5)c4Cl)cn3)CC2)[C@@H]1N` [Example 5], with 2.12 nM.
To `C[C@@H]1OCC2(CCN(c3cnc(Sc4cccc(-c5nc(C#N)co5)c4Cl)cn3)CC2)[C@@H]1N` [Example 27] belongs 3.51 nM.
In the case of `C[C@@H]1OCC2(CCN(c3cnc(Sc4cccc(Nc5cnn(C)c5)c4Cl)cn3)CC2)[C@@H]1N` [Example 44], the IC50 came to 7.3 nM.

One may read the IC50 as the concentration that gives 50% inhibition.
